Source: publication PMC7503712, “Enterovirus Inhibition by Hinged Aromatic Compounds with Polynuclei” (Molecules, 2020)

Tests used:
[1] = test system: EV71 strain BrCr; assay: Antiviral activity on the replication of EV71 strain BrCr in RD cells; type: cell-based, Enterovirus 71; conditions: for EC50: Enterovirus A, virus replication inhibited by 50%
Experimental: (§1) The selectivity index (SI = CC50/EC50), a measure for the therapeutic window of the compound in the assay system, was then calculated. The antiviral effect of hinged aromatic compounds that adversely affected the host cell metabolism was likely as a result of a pleiotropic or non-specific effect on the host cell. […].
(§2) The biological activity of the 18 hinged aromatic compounds against EV71 was evaluated in a cell-based assay with live enteroviruses. The EV71 strains were originated from Chang Gung University of Taiwan. The rhabdomyosarcoma (RD) cells, grown for 3–4 days in tissue culture flasks, were harvested and seeded in MEM Rega 3 medium (Gibco, Merelbeke, Belgium) supplemented with fetal bovine serum (FBS, 2.0%, Integro, Merelbeke, Belgium), 200 mM L-glutamine (Gibco, Merelbeke, Belgium), and aqueous 7.5% NaHCO3 (Gibco, Merelbeke, Belgium). The microtitre plates were incubated overnight to produce a non-confluent cell monolayer. Then assay plates were transferred to a liquid handling platform, on which a sample dilution series was prepared at a sample concentration of 0.100 mg/mL or lower in DMSO. After preparation of the hinged compound dilution series, virus was added to the wells with a dilution optimized for each EV71 strain. The final, maximal DMSO concentration that reached in the assay wells with the highest sample input (1.0%) was tolerated well by the cells. The assay plates were returned to the incubator at 37 °C (5.0% CO2) for four days. According to the manufacturers’ instructions (Promega, Leiden, The Netherlands), residual cell viability was then quantified by use of an MTS readout method.

[2] = Adverse effect on host cell metabolism (MTS method) in RD cells; type: cell-based; conditions: human, RD (rhabdomyosarcoma) cells, RD host cell metabolism reduced by 50%
Experimental: as §1, §2

[3] = Lipophilicity by shake-flask method with UV spectrometry; type: physicochemical; conditions: n-octane and water, 25 ± 1 °C, average of three independent experiments
Experimental: The log P values associated with the molecular lipophilicity of all hinged aromatic compounds with polynuclei were obtained by use of the ''shake-flask method'' [46]. The partition coefficient was measured as the ratio of the equilibrium concentrations of a dissolved hinged compound in a two-phase system consisting of n-octane and water, which are immiscible solvents. The temperature was kept constant at 25 ± 1 °C. The analytical method employed was UV spectrometry.

| Structure (SMILES) | EC50 [1] [µM] | CC50 at 4 days [2] [µM] | logD hydrocarbon water [3] | SI (selectivity index = CC50/EC50) [1] | melting point [°C] |
| --- | --- | --- | --- | --- | --- |
| CCOC(=O)c1ccc(OCCC2CCN(c3ccc(C)nn3)CC2)cc1 [Pirodavir, reference compound] | 0.3 ± 0.1 | > 54 |  |  |  |
| COc1ccc(NC(=O)c2ccc(-c3cccc(-c4cc[nH]n4)c3)o2)cc1 [12b, N-(4-Methoxyphenyl)-5-[3-(1H-pyrazol-3-yl)phenyl]-furan-2-carboxamide] | 2.41 ± 0.3 | 21 ± 1.5 | 4.15 | 8.70 |  |
| Cc1ccc(-c2cc(-c3cccc(-c4ccc(C(=O)N5CCOCC5)o4)c3)n[nH]2)cc1 [21d, Morpholino[5-(3-[5-(p-tolyl)-1H-pyrazol-3-yl]phenyl)furan-2-yl]methanone] |  | 3.25 ± 0.3 | 4.3 |  |  |
| Cn1c(C(=O)N2CCOCC2)ccc1-c1cccc(-c2cc[nH]n2)c1 [21j, Morpholino(5-[3-(1H-pyrazol-3-yl)phenyl]-1-methyl-1H-pyrrol-2-yl)methanone] | 223 ± 2 |  | 2.56 |  |  |
| O=C(c1ccc(-c2cccc(-c3cc[nH]n3)c2)o1)N1CCCCCC1 [10c, Azepan-1-yl(5-[3-(1H-pyrazol-3-yl)phenyl]furan-2-yl)methanone] | 6.16 ± 0.15 | 81.1 ± 3 | 4.22 | 13.1 |  |
| Cn1ccc(-c2cccc(-c3ccc(C(=O)N4CCOCC4)o3)c2)n1 [compound 23, Morpholino(5-[3-(1-methyl-1H-pyrazol-3-yl)phenyl]furan-2-yl)methanone] | 34.6 ± 1 |  | 2.75 |  |  |
| COc1ccc(-c2cc(-c3cccc(-c4ccc(C(=O)N5CCOCC5)s4)c3)n[nH]2)cc1 [21h, [5-(3-[5-(4-Methoxyphenyl)-1H-pyrazol-3-yl]phenyl)thiophen-2-yl](morpholino)methanone] | 4.1 ± 0.12 | 41.9 ± 2.2 | 4.64 | 10.2 |  |
| O=C(c1ccc(-c2cccc(-c3cc[nH]n3)c2)o1)N1CCCC1 [10a, (5-[3-(1H-Pyrazol-3-yl)phenyl]furan-2-yl)(pyrrolidin-1-yl)methanone] | 16.2 ± 1 | 119 ± 2 | 3.42 | 7.30 |  |
| O=C(NC1CC1)c1ccc(-c2cccc(-c3cc[nH]n3)c2)o1 [compound 13, N-Cyclopropyl-5-[3-(1H-pyrazol-3-yl)phenyl]furan-2-carboxamide] | 15.1 ± 1 |  | 3.25 |  |  |
| O=C(Nc1ccc(F)cc1)c1ccc(-c2cccc(-c3cc[nH]n3)c2)o1 [12a, N-(4-Fluorophenyl)-5-[3-(1H-pyrazol-3-yl)phenyl]furan-2-carboxamide] | < 1.73 | 4.53 ± 0.1 | 4.18 |  |  |
| O=C(c1ccc(-c2cccc(-c3cc(-c4ccc(C(F)(F)F)cc4)[nH]n3)c2)o1)N1CCOCC1 [21f, Morpholino(5-[3-(5-[4-(trifluoromethyl)phenyl]-1H-pyrazol-3-yl)phenyl]furan-2-yl)-methanone] | < 1.28 | 3.28 ± 0.11 | 4.33 |  |  |
| O=C(c1ccc(-c2cccc(-c3cc(-c4ccc(C(F)(F)F)cc4)[nH]n3)c2)s1)N1CCOCC1 [21i, Morpholino(5-[3-(5-[4-(trifluoromethyl)phenyl]-1H-pyrazol-3-yl)phenyl]thiophen-2-yl)-methanone] | 2.29 ± 0.1 | 76.4 ± 3 | 5.04 | 33.4 |  |
| O=C(c1ccc(-c2cccc(-c3cc(-c4ccccc4)[nH]n3)c2)o1)N1CCOCC1 [21c, Morpholino-(5-[3-(5-phenyl-1H-pyrazol-3-yl)phenyl]furan-2-yl)methanone] |  | 4.13 ± 0.12 | 3.92 |  |  |
| O=C(c1ccc(-c2cccc(-c3cc[nH]n3)c2)o1)N1CCCCC1 [10b, Piperidin-1-yl(5-[3-(1H-pyrazol-3-yl)phenyl]furan-2-yl)methanone] | 2.14 ± 0.12 | 14.3 ± 1 | 3.87 | 6.70 |  |
| Cc1cc(-c2cccc(-c3ccc(C(=O)N4CCOCC4)o3)c2)n[nH]1 [21b, Morpholino-(5-[3-(5-methyl-1H-pyrazol-3-yl)phenyl]furan-2-yl)methanone] | 13 ± 2.5 |  | 2.87 |  |  |
| COc1ccc(-c2cc(-c3cccc(-c4ccc(C(=O)N5CCOCC5)o4)c3)n[nH]2)cc1 [21e, Morpholino[5-(3-[5-(4-methoxyphenyl)-1H-pyrazol-3-yl]phenyl)furan-2-yl]methanone] | < 1.4 | 2.09 ± 0.1 | 3.96 |  |  |
| O=C(c1ccc(-c2cccc(-c3cc[nH]n3)c2)o1)N1CCOCC1 [21a] | 11.6 ± 0.3 |  | 2.6 |  |  |
| COCCNC(=O)c1ccc(-c2cccc(-c3cc[nH]n3)c2)s1 [compound 14, N-(2-Methoxyethyl)-5-[3-(1H-pyrazol-3-yl)phenyl]thiophene-2-carboxamide] |  | 22.4 ± 2.5 | 3.15 |  |  |
| O=C(c1ccc(-c2cccc(-c3cc(-c4ccccc4)[nH]n3)c2)s1)N1CCOCC1 [21g, Morpholino(5-[3-(5-phenyl-1H-pyrazol-3-yl)phenyl]thiophen-2-yl)methanone] | 241 ± 3 |  | 4.61 |  | 239.6 to 241.8 |
